Experimental data: paper PMC4303209, “A novel phosphatidylinositol 3-kinase (PI3K) inhibitor directs a potent FOXO-dependent, p53-independent cell cycle arrest phenotype characterized by the differential induction of a subset of FOXO-regulated genes” (Breast Cancer Research : BCR, 2014)

Test system: MCF-7 breast cancer cells
Test: Microarray gene expression analysis (Agilent whole human genome 4 x 44K; compound vs DMSO, LIMMA log2 fold change)
Type: cell-based
Settings: cell cycle genes

Oc1cccc(-c2nc(N3CCOCC3)c3oc4ncccc4c3n2)c1 [PI-103]
TUBB3 log2FC (Gene 10381): -0.59 | ANAPC10 log2FC (Gene 10393): 0.20 | NDRG1 log2FC (Gene 10397): 1.49 | GNB2L1 log2FC (Gene 10399): -0.0332 | PRMT5 log2FC (Gene 10419): -0.13 | MAD2L2 log2FC (Gene 10459): 0.16 | TACC3 log2FC (Gene 10460): -0.29 | CREB3 log2FC (Gene 10488): -0.0661 | MYBBP1A log2FC (Gene 10514): -0.30 | CIB1 log2FC (Gene 10519): -0.08 | SSSCA1 log2FC (Gene 10534): -0.27 | DCTN2 log2FC (Gene 10540): 0.11 | SMC2 log2FC (Gene 10592): 0.63 | ERN2 log2FC (Gene 10595): -0.68 | USP16 log2FC (Gene 10600): 0.68 | HEXIM1 log2FC (Gene 10614): -0.43 | SPAG5 log2FC (Gene 10615): 0.36 | STAMBP log2FC (Gene 10617): 0.27 | TXNIP log2FC (Gene 10628): 2.21 | PDPN log2FC (Gene 10630): -0.0347 | RGS14 log2FC (Gene 10636): 0.71 | CTCF log2FC (Gene 10664): -0.22 | CGRRF1 log2FC (Gene 10668): 0.54 | CGREF1 log2FC (Gene 10669): 0.00665 | USP39 log2FC (Gene 10713): -0.0422 | NUDC log2FC (Gene 10726): -0.38 | PLK4 log2FC (Gene 10733): 0.52 | STAG3 log2FC (Gene 10734): 0.43 | STAG2 log2FC (Gene 10735): 1.19 | NES log2FC (Gene 10763): -0.28 | PLK2 log2FC (Gene 10769): -0.93 | NEK6 log2FC (Gene 10783): -0.68 | SDCCAG8 log2FC (Gene 10806): 0.62 | TUBGCP2 log2FC (Gene 10844): 0.037 | LILRB1 log2FC (Gene 10859): -0.21 | USP19 log2FC (Gene 10869): 0.38 | BLCAP log2FC (Gene 10904): -0.47 | TXNL4A log2FC (Gene 10907): -0.46 | SUGT1 log2FC (Gene 10910): 0.24 | GADD45G log2FC (Gene 10912): -0.19 | EHMT2 log2FC (Gene 10919): 0.25 | BTG3 log2FC (Gene 10950): 0.00788 | MAPRE2 log2FC (Gene 10982): -0.34 | KIF2C log2FC (Gene 11004): 0.44 | TLK2 log2FC (Gene 11011): 0.62 | RAB35 log2FC (Gene 11021): -0.44 | TDRKH log2FC (Gene 11022): 0.0086 | PIM2 log2FC (Gene 11040): -0.54 | UBE2C log2FC (Gene 11065): -0.18 | TRIOBP log2FC (Gene 11078): 0.53 | NUPL2 log2FC (Gene 11097): -0.024 | KATNA1 log2FC (Gene 11104): 0.67 | PRDM4 log2FC (Gene 11108): 0.26 | CIT log2FC (Gene 11113): 0.53 | ZWINT log2FC (Gene 11130): -0.23 | CDC37 log2FC (Gene 11140): -0.17 | LZTS1 log2FC (Gene 11178): -0.98 | WDR6 log2FC (Gene 11180): -0.36 | RASSF1 log2FC (Gene 11186): 0.72 | CEP250 log2FC (Gene 11190): -0.14 | PMF1 log2FC (Gene 11243): -0.18 | DCTN3 log2FC (Gene 11258): 0.31 | TUSC2 log2FC (Gene 11334): -0.50 | OIP5 log2FC (Gene 11339): 0.0365 | MAPRE1 log2FC (Gene 22919): -0.57 | MAPRE3 log2FC (Gene 22924): 0.0211 | TRIM32 log2FC (Gene 22954): -0.32 | TPX2 log2FC (Gene 22974): -0.00173 | AZI1 log2FC (Gene 22994): 0.93 | CEP152 log2FC (Gene 22995): 0.55 | USP33 log2FC (Gene 23032): 0.88 | WAPAL log2FC (Gene 23063): 0.61 | TRIM35 log2FC (Gene 23087): 0.20 | CLASP2 log2FC (Gene 23122): 0.55 | POGZ log2FC (Gene 23126): 0.58 | PHF8 log2FC (Gene 23133): -0.18 | SMC5 log2FC (Gene 23137): -0.36 | FBXL7 log2FC (Gene 23194): 0.0429 | PSME4 log2FC (Gene 23198): -0.07 | RRS1 log2FC (Gene 23212): -0.91 | NUP210 log2FC (Gene 23225): -0.44 | PLCB1 log2FC (Gene 23236): 1.31 | BOP1 log2FC (Gene 23246): -0.18 | NUP160 log2FC (Gene 23279): -0.78 | FBXW11 log2FC (Gene 23291): -0.28 | UBR2 log2FC (Gene 23304): 0.76 | USP22 log2FC (Gene 23326): 0.07 | CLASP1 log2FC (Gene 23332): -0.36 | PPP1R13B log2FC (Gene 23368): 0.0642 | DICER1 log2FC (Gene 23405): -0.87 | SIRT1 log2FC (Gene 23411): 1.17 | ITGB3BP log2FC (Gene 23421): 0.69 | PES1 log2FC (Gene 23481): -0.38 | ZFYVE26 log2FC (Gene 23503): 0.40 | SCRIB log2FC (Gene 23513): 0.03 | CCNDBP1 log2FC (Gene 23582): 0.71 | CD2AP log2FC (Gene 23607): 0.81 | NUP62 log2FC (Gene 23636): -0.63 | RABGAP1 log2FC (Gene 23637): 0.55 | PPP1R15A log2FC (Gene 23645): 0.51 | POLA2 log2FC (Gene 23649): -0.87 | ZNF318 log2FC (Gene 24149): 0.53 | RAD54B log2FC (Gene 25788): 0.42 | NIPBL log2FC (Gene 25836): 0.88 | INTS7 log2FC (Gene 25896): -0.23 | AHCTF1 log2FC (Gene 25909): 0.40 | SIN3A log2FC (Gene 25942): 0.89 | SH2B1 log2FC (Gene 25970): -0.49 | EGFL6 log2FC (Gene 25975): 0.03 | SENP6 log2FC (Gene 26054): 0.54 | FBXO6 log2FC (Gene 26270): 0.37 | FBXO5 log2FC (Gene 26271): 0.49 | NUPR1 log2FC (Gene 26471): 0.07 | AATF log2FC (Gene 26574): -0.41 | CKAP2 log2FC (Gene 26586): 0.63 | HBP1 log2FC (Gene 26959): 2.74 | MLH3 log2FC (Gene 27030): 0.23 | MTBP log2FC (Gene 27085): 0.79 | TJP3 log2FC (Gene 27134): 0.31 | VPS4A log2FC (Gene 27183): -0.29 | PDCD4 log2FC (Gene 27250): 1.70 | APEX2 log2FC (Gene 27301): -0.66 | UBE2S log2FC (Gene 27338): -0.66 | EML4 log2FC (Gene 27436): -0.50 | PPP2R3B log2FC (Gene 28227): 0.28 | MCTS1 log2FC (Gene 28985): -0.21 | HIPK2 log2FC (Gene 28996): -0.14 | BRD7 log2FC (Gene 29117): 0.53 | RACGAP1 log2FC (Gene 29127): 0.55 | UHRF1 log2FC (Gene 29128): -0.33 | PSMC3IP log2FC (Gene 29893): -0.14 | GPSM2 log2FC (Gene 29899): 0.32 | SAC3D1 log2FC (Gene 29901): 0.09 | RPA4 log2FC (Gene 29935): 0.55 | ANAPC4 log2FC (Gene 29945): 0.43 | SERTAD1 log2FC (Gene 29950): -0.75 | CUZD1 log2FC (Gene 50624): 0.31 | PARD6A log2FC (Gene 50855): 0.11 | GMNN log2FC (Gene 51053): -0.12 | RPS27L log2FC (Gene 51065): 0.28 | MLXIPL log2FC (Gene 51085): 0.34 | SBDS log2FC (Gene 51119): 0.46 | DYNC1LI1 log2FC (Gene 51143): 0.52 | ING4 log2FC (Gene 51147): 1.59 | TUBE1 log2FC (Gene 51175): 0.0372 | LEF1 log2FC (Gene 51176): -0.89 | HERC5 log2FC (Gene 51191): 0.75 | NUSAP1 log2FC (Gene 51203): 0.74 | DUSP13 log2FC (Gene 51207): 0.0185 | WAC log2FC (Gene 51322): 0.91 | DACT1 log2FC (Gene 51339): 0.04 | FZR1 log2FC (Gene 51343): -0.32 | TAOK3 log2FC (Gene 51347): 1.14 | PRKAG2 log2FC (Gene 51422): -0.54 | SNX9 log2FC (Gene 51429): 0.42 | ANAPC7 log2FC (Gene 51434): -0.32 | LCMT1 log2FC (Gene 51451): 0.00313
